Source: EP4818172A1, “ASCORBIC ACID DERIVATIVES AND COSMETIC CONTAINING SAME” (Seiwa Kasei Co., Ltd., priority 2023, dated 2025)

Tests used:
[1] = Stability test -2: residual rate in cream of pH 7 or 9 stored at 50°C; type: physicochemical; conditions: cream with 4.0 W/W% derivative
Method: (§1) For each of the samples of Synthesis Examples 9 to 32, (a) and (b) shown in Table 12 were each heated and mixed. After cooling, (c) shown in Table 12 was added to prepare a cream with a pH of 7 or 9. The sample was stored at 50°C for 4 weeks, and the residual rate was determined in the same manner as in Test Example 1 and evaluated according to the criteria described below. The odor and coloration were also evaluated according to the same method and criteria as in Test Example 1. The results regarding the residual rate are shown in Tables 13 and 14, and the results regarding the odor and coloration are shown in Tables 15 and 16.
• ⊚: 95% or more • ○: 85% or more, less than 95% • ×: Less than 85% [Table 12]

[2] = Stability test -2: odor and coloration of cream stored at 50°C; type: physicochemical; conditions: Test Example 2, cream stored at 50°C, total score of 10 panelists
Method: (§2) For each of the samples of Synthesis Examples 1 to 6, 1% aqueous solutions were adjusted to pH 3, 5, 7, 8, and 9 with a dilute potassium hydroxide aqueous solution, and then placed in 50 mL screw tubes and • 2: Color changes compared to immediately after preparation. • 1: Strongly colored compared to immediately after preparation. Based on the results of the above evaluation, the following classification was made: • ○: Total score of 10 panelists is 25 or more • △: Total score of 10 panelists is 16-24 • ×: The total score of 10 panelists is 15 or less [Table 10]
as §1

[3] = tested on: Normal human dermal fibroblasts; test: Collagen production promoting effect (ELISA of free collagen in supernatant); type: cell-based; conditions: sample at 10 mM or less, cultured 48 hours, % of control group (100%), N=3
Method: Normal human dermal fibroblasts were prepared in D-MEM containing 5% (v/v) fetal bovine serum to a cell density of 2.5 × 10^4 cell s /well, and then pre-incubated for 24 hours on a 96-well plate. After removing the medium, samples prepared to a predetermined concentration in D-MEM containing 5% (v/v) fetal bovine serum were added to each well and cultured for 48 hours. After the culture was completed, the amount of free collagen in the supernatant was quantified by ELISA. Measurements were performed in triplicate (N=3).
The amount of collagen produced when the sample was measured at a concentration of 10 mM or less was compared with that of the control group, and the results (% values when the control group was set to 100%) are shown in Table 17 based on the following criteria. • <100%: ± • 100-140%: + • 140%<: ++ [Table 17]

[4] = tested on: Normal human dermal fibroblasts (NHDF); test: Hyaluronic acid production promoting effect (ELISA of supernatant); type: cell-based; conditions: sample at 10 mM or less in serum-free D-MEM, cultured 48 hours, % of control group (100%), N=3
Method: Normal human dermal fibroblasts (NHDF) were prepared in D-MEM containing 5% (v/v) fetal bovine serum to a cell density of 2.5 × 10^4 cells/well, and then pre-incubated on a 96-well plate for 24 hours. After removing the medium, samples prepared in serum-free D-MEM were added to each well and cultured for 48 hours. After the culture was completed, the amount of hyaluronic acid in the supernatant was quantified by ELISA. Measurements were performed in triplicate (N=3).
The amount of hyaluronic acid produced when the sample was measured at a concentration of 10 mM or less was compared with that of the control group, and the results (% values when the control group is set to 100%) are shown in Tables 18 to 20 based on the following criteria. • <100%: ± • 100-120%: + • 120%<: ++ [Table 18]

[5] = Stability test -1: residual rate of 1% aqueous solutions at pH 3 to 9 on storage; type: physicochemical; conditions: 1% aqueous solution
[6] = Stability test -1: odor and coloration scored by 10 panelists; type: physicochemical; conditions: Test Example 1, aqueous solution, total score of 10 panelists
Method: as §2

| SMILES | Residual Rate After 2 weeks ([1]; pH7, stored at 50°C) | Residual Rate After 4 weeks ([1]; pH7, stored at 50°C) | Residual Rate After 2 weeks ([1]; pH9, stored at 50°C) | Residual Rate After 4 weeks ([1]; pH9, stored at 50°C) | Coloration After 2 weeks [2] | Odor After 2 weeks [2] | Coloration After 4 weeks [2] | Odor After 4 weeks [2] | Collagen production-promoting effect [3] | Hyaluronic acid production-promoting effect [4] | Residual Rate After 2 weeks ([5]; pH3, stored at 50°C) | Residual Rate After 4 weeks ([5]; pH3, stored at 50°C) | Residual Rate After 2 weeks ([5]; pH5, stored at 50°C) | Residual Rate After 4 weeks ([5]; pH5, stored at 50°C) | Residual Rate After 2 weeks ([5]; pH7, stored at 50°C) | Residual Rate After 4 weeks ([5]; pH7, stored at 50°C) | Residual Rate After 2 weeks ([5]; pH8, stored at 50°C) | Residual Rate After 4 weeks ([5]; pH8, stored at 50°C) | Residual Rate After 2 weeks ([5]; pH9, stored at 50°C) | Residual Rate After 4 weeks ([5]; pH9, stored at 50°C) | further results |
| --- | --- | --- | --- | --- | --- | --- | --- | --- | --- | --- | --- | --- | --- | --- | --- | --- | --- | --- | --- | --- | --- |
| CC(C)CCCCCCCCCCCCCCC(=O)OCC(OC(=O)CCCCCCCCCCCCCCC(C)C)C1OC(=O)C2=C1OCCCO2 (stereo not shown) [synthesis example 29, 5,6-O-diisostearoyl-2,3-O-(1,3-propanediyl) ascorbic acid] | ⊚ (95% or more) | ⊚ (95% or more) | ⊚ (95% or more) | ⊚ (95% or more) | ○ (Total score of 10 panelists is 25 or more) | ○ (Total score of 10 panelists is 25 or more) | ○ (Total score of 10 panelists is 25 or more) | Δ | ++ (140%<) | + (100-120%) | – | – | – | – | – | – | – | – | – | – | – |
| CCCC(=O)OCC(OC(=O)CCC)C1OC(=O)C2=C1OCCCO2 (stereo not shown) [synthesis example 21, 5,6-O-dibutanoyl-2,3-O-(1,3-propanediyl) ascorbic acid] | ⊚ (95% or more) | ⊚ (95% or more) | ⊚ (95% or more) | ⊚ (95% or more) | ○ (Total score of 10 panelists is 25 or more) | ○ (Total score of 10 panelists is 25 or more) | ○ (Total score of 10 panelists is 25 or more) | Δ | ++ (140%<) | ++ (120%<) | – | – | – | – | – | – | – | – | – | – | – |
| O=C1OC(C(O)CO)C2=C1OCCCO2 (stereo not shown) [synthesis example 2, 2,3-O-(1,3-propanediyl) ascorbic acid] | – | – | – | – | – | – | – | – | ++ (140%<) | ++ (120%<) | ⊚ | ⊚ | ⊚ | ⊚ | ⊚ | ⊚ | ⊚ | ○ | ○ | Δ | Coloration After 2 weeks [6]: ○ (Total score of 10 panelists is 25 or more); Odor After 2 weeks [6]: ○ (Total score of 10 panelists is 25 or more); Coloration After 4 weeks [6]: ○ (Total score of 10 panelists is 25 or more); Odor After 4 weeks [6]: Δ |
| O=C1OC(C(O)CO)C2=C1OC(CO)CO2 (stereo not shown) [synthesis example 5, 2,3-O-(1-hydroxymethyl-1,2-ethanediyl) ascorbic acid] | – | – | – | – | – | – | – | – | + (100-140%) | + (100-120%) | ⊚ | ⊚ | ⊚ | ⊚ | ○ | Δ | ○ | Δ | ○ | Δ | Coloration After 2 weeks [6]: ○ (Total score of 10 panelists is 25 or more); Odor After 2 weeks [6]: ○ (Total score of 10 panelists is 25 or more); Coloration After 4 weeks [6]: ○ (Total score of 10 panelists is 25 or more); Odor After 4 weeks [6]: ○ (Total score of 10 panelists is 25 or more) |
| CCCCCCCCCCCCCCCC(=O)OCC(OC(=O)CCCCCCCCCCCCCCC)C1OC(=O)C2=C1OCCCO2 (stereo not shown) [Synthesis Example 27, 5,6-O-dipalmitoyl-2,3-O-(1,3-propanediyl) ascorbic acid] | ⊚ (95% or more) | ⊚ (95% or more) | ⊚ (95% or more) | ⊚ (95% or more) | ○ (Total score of 10 panelists is 25 or more) | ○ (Total score of 10 panelists is 25 or more) | Δ | Δ | ++ (140%<) | ++ (120%<) | – | – | – | – | – | – | – | – | – | – | – |
| O=C1OC(C(O)CO)C2=C1OCCCCO2 (stereo not shown) [synthesis example 3, 2,3-O-(1,4-butanediyl) ascorbic acid] | – | – | – | – | – | – | – | – | + (100-140%) | + (100-120%) | ⊚ | ⊚ | ⊚ | ⊚ | ⊚ | ⊚ | ⊚ | ○ | ○ | Δ | Coloration After 2 weeks [6]: ○ (Total score of 10 panelists is 25 or more); Odor After 2 weeks [6]: ○ (Total score of 10 panelists is 25 or more); Coloration After 4 weeks [6]: ○ (Total score of 10 panelists is 25 or more); Odor After 4 weeks [6]: ○ (Total score of 10 panelists is 25 or more) |
| CCCCCCCC(=O)OCC(OC(=O)CCCCCCC)C1OC(=O)C2=C1OCCCCO2 (stereo not shown) [synthetic example 12, 5,6-O-dioctanoyl-2,3-O-(1,4-butanediyl) ascorbic acid] | ⊚ (95% or more) | ⊚ (95% or more) | ⊚ (95% or more) | ⊚ (95% or more) | ○ (Total score of 10 panelists is 25 or more) | ○ (Total score of 10 panelists is 25 or more) | ○ (Total score of 10 panelists is 25 or more) | Δ | ++ (140%<) | ++ (120%<) | – | – | – | – | – | – | – | – | – | – | – |
